Patent US20240058315A1, “Pyridine and Pyrazine derivative for the Treatment of CF, COPD, and Bronchiectasis” (NOVARTIS AG, priority 2019, published 2024)
pEC50: −log10 of the molar value.

Tests used:
wild type CTFR channel = wild type CTFR channel (Homo sapiens (Human), UniProt P13569); assay: in vitro EC50 against the wild type CFTR channel; assay type: cell-based
From the text: There is no preclinical in vivo model of CFTR potentiation.

COPD patients = assay: Phase II study of Compound A in COPD patients: fibrinogen levels in blood; assay type: in vivo, human; design: fibrinogen change from baseline, mean / fibrinogen change from baseline, minimum / fibrinogen change from baseline, median / fibrinogen change from baseline, maximum: unit not given here; settings: for fibrinogen change from baseline, maximum / fibrinogen change from baseline, mean / fibrinogen change from baseline, median / fibrinogen change from baseline, minimum: value in brackets
Experimental: (§1) Patients were randomized and stratified by smoking status (former vs current smokers). The double-blind placebo-controlled treatment period was 28 days (Day 1 to Day 28) and included visits on Days 1, 14 and 28. Eligible patients were randomized in a 2:1 ratio to receive 300 mg b.i.d. of Compound A or matching placebo for 28 consecutive days. Of note, the first 4 patients enrolled randomized in this study received 450 mg b.i.d. of Compound A or placebo, prior to an amendment reducing the dose and thereafter the dose was reduced to 300 mg b.i.d. of Compound A. The single-blind placebo-controlled follow-up period was 28 days. The follow-up period included a visit on Day 29 for key primary and secondary objective efficacy assessments, weekly follow-up contact via telephone, and an End-of-Study (EOS) visit on Day 56.
Blood samples were collected from patients for the analysis of fibrinogen.

Haemophilus influenzae = assay: Phase II study in COPD patients: sputum microbiology, Haemophilus influenzae; assay type: in vivo
Experimental: as §1
Spontaneous sputum was collected from patients and used to quantify colony forming units (CFUs) as a potential efficacy marker. The collected sputum samples were cultured for the following specific bacteria: Haemophilus parainfluenza, Haemophilus influenza, Pseudomonas aeruginosa, Moraxella, and Streptococcus pneumonia. In the event of bacterial growth for one or more of the above five pathogens, then the test result was reported, including the quantitative growth. In order to be included in the sputum analysis, a patient must have provided a sufficient sputum sample at baseline and at least one other visit (Day 14, Day 29 or EOS).
A decrease in airway bacterial colonization as detected in the sputum is considered improvement. In Table 4, the frequency (n, %) of patients was reported by treatment with Compound A and type of bacteria. Within each treatment group, the percentage was calculated as number of patients who were colonized with bacteria divided with total number of patients who produced a sputum sample at that time point.

[1] = test system: Pseudomonas aeruginosa small colony variant; assay type: in vivo; settings: Baseline
Experimental: as §1
Spontaneous sputum was collected from patients and used to quantify colony forming units (CFUs) as a potential efficacy marker. […] In the event of bacterial growth for one or more of the above five pathogens, then the test result was reported, including the quantitative growth. […]
A decrease in airway bacterial colonization as detected in the sputum is considered improvement. […] Within each treatment group, the percentage was calculated as number of patients who were colonized with bacteria divided with total number of patients who produced a sputum sample at that time point.

CFTR = assay: COPD PoC study (study 2): sweat chloride; assay type: in vivo, human; settings: Day 29, 300 mg bid 28 days, 90% CI −11.6, 1.25, p-value=0.091
Experimental: as §1

CYP3A4/5 = assay: Time dependent inhibition and induction of CYP3A4/5; assay type: in vitro ADME
BCRP = BCRP (Homo sapiens (Human), UniProt Q9UNQ0); assay: in vitro inhibition of BCRP; assay type: in vitro ADME
OAT1/3 = assay: in vitro inhibition of OAT1/3; assay type: in vitro ADME
UGT1A1 = UGT1A1 (Homo sapiens (Human), UniProt P22309); assay: in vitro inhibition of UGT1A1; assay type: in vitro ADME
UGT2B7 = UGT2B7 (Homo sapiens (Human), UniProt P16662); assay: in vitro inhibition of UGT2B7; assay type: in vitro ADME
in vivo = settings: monkey
[2] = BAS (baseline) visit, 300 mg bid group
[3] = SCR (screening) visit, 300 mg bid group

BCRP, sequence (Q9UNQ0 whole entry): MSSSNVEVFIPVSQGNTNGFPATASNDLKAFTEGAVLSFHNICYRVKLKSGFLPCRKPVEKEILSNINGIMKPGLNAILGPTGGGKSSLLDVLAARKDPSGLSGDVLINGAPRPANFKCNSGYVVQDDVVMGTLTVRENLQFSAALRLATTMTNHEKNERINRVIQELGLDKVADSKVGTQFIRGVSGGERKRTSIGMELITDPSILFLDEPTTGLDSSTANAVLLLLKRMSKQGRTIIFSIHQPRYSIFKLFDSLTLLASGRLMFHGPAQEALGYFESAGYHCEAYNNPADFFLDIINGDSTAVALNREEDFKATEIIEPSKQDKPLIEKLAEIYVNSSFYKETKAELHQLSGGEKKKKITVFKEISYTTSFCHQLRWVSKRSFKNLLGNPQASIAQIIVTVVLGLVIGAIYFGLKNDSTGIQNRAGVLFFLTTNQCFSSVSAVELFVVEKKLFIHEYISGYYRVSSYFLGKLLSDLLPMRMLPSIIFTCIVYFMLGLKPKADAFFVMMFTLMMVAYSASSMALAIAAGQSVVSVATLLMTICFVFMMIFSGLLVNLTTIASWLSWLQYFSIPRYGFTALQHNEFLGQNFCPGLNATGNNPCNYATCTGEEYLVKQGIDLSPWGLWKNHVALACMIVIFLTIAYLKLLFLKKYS
wild type CTFR channel, sequence (P13569 whole entry): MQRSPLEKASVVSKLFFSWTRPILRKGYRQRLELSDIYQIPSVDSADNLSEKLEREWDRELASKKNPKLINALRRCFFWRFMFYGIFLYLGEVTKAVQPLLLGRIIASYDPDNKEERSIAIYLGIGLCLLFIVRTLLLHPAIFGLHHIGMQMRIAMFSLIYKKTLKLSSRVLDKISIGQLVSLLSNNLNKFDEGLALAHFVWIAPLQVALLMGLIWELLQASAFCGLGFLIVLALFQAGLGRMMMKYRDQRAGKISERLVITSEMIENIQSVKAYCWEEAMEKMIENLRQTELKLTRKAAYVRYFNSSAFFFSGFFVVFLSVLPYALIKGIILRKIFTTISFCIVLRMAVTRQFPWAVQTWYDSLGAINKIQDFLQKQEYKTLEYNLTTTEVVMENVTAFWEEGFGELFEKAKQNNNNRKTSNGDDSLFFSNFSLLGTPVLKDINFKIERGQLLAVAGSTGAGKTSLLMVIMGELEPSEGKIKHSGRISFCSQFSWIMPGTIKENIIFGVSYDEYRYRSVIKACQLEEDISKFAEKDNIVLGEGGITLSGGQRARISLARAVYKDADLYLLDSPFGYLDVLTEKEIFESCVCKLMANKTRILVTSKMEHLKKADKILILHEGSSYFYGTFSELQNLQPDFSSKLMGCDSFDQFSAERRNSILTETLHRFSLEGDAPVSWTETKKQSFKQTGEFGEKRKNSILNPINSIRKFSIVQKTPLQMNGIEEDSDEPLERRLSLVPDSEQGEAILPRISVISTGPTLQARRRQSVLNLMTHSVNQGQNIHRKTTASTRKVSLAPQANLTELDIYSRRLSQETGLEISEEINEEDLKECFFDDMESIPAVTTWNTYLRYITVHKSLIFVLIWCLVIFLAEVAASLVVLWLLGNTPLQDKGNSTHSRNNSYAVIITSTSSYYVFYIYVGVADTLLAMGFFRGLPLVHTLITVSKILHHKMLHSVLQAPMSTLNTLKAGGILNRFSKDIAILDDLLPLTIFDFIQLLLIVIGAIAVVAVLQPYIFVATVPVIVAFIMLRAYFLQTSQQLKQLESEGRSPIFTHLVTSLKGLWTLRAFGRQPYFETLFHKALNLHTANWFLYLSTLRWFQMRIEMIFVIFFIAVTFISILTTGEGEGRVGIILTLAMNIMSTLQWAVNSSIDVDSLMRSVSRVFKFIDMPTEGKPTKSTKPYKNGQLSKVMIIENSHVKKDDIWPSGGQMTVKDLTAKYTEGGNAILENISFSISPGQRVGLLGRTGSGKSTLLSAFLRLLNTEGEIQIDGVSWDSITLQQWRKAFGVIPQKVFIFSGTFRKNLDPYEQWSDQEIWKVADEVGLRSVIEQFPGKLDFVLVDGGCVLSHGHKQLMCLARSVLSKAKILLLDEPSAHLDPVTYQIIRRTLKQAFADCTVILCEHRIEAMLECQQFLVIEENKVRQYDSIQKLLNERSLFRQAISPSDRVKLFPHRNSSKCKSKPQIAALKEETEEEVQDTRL
UGT2B7, sequence (P16662 24-529): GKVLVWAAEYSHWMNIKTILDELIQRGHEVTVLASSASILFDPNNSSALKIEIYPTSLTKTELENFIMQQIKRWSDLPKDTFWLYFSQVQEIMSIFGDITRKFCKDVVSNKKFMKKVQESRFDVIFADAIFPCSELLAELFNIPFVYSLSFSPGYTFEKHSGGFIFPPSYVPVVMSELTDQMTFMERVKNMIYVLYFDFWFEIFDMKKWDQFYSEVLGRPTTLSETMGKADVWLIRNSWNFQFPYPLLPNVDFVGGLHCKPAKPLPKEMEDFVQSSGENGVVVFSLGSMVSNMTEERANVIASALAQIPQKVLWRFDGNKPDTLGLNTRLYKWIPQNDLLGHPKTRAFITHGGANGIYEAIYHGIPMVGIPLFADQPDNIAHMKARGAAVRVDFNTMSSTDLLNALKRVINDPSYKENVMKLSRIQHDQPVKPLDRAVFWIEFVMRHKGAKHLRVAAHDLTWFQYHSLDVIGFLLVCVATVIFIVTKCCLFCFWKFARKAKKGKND
UGT1A1, sequence (P22309 26-533): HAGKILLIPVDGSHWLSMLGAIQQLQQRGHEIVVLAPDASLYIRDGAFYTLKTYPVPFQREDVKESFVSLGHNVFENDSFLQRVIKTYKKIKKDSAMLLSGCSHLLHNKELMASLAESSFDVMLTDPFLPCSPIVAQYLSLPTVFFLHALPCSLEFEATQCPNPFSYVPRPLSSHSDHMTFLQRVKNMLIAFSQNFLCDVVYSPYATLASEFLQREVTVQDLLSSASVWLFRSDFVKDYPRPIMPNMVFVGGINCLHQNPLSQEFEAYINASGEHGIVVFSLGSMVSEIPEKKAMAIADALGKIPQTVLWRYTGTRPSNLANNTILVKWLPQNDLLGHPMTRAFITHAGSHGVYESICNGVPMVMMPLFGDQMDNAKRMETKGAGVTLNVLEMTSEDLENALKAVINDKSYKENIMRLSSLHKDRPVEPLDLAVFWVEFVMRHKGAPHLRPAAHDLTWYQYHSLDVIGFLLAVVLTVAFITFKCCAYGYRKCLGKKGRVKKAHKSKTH

With `COc1nc(C(=O)NC[C@](C)(O)C(F)(F)F)c(N)cc1C(F)(F)F` (single isomer, unassigned) [Example 5] the pEC50 (wild type CTFR channel) was 7.14, the fibrinogen level, maximum (COPD patients; [2]) was 4.9 g/L and the fibrinogen level, mean (COPD patients; [2]) was 3.28 g/L. The fibrinogen level, median (COPD patients; [2]) was 3.16 g/L, the fibrinogen level, minimum (COPD patients; [2]) was 2 g/L and the fibrinogen level, maximum (COPD patients; D14, 300 mg bid) was 4.4 g/L. The fibrinogen level, mean (COPD patients; D14, 300 mg bid) was 3.1 g/L, the fibrinogen level, median (COPD patients; D14, 300 mg bid) was 3.03 g/L and the fibrinogen level, minimum (COPD patients; D14, 300 mg bid) was 1.6 g/L. The “fibrinogen change from baseline, maximum” value (COPD patients; D14, 300 mg bid) was 1.7, the “fibrinogen change from baseline, mean” value (COPD patients; D14, 300 mg bid) was −0.18 and the “fibrinogen change from baseline, median” value (COPD patients; D14, 300 mg bid) was −0.20. The “fibrinogen change from baseline, minimum” value (COPD patients; D14, 300 mg bid) was −1.7, the fibrinogen level, maximum (COPD patients; D29, 300 mg bid) was 4.4 g/L and the fibrinogen level, mean (COPD patients; D29, 300 mg bid) was 3.02 g/L. The fibrinogen level, median (COPD patients; D29, 300 mg bid) was 2.98 g/L, the fibrinogen level, minimum (COPD patients; D29, 300 mg bid) was 1.6 g/L and the “fibrinogen change from baseline, maximum” value (COPD patients; D29, 300 mg bid) was 1.3. The “fibrinogen change from baseline, mean” value (COPD patients; D29, 300 mg bid) was −0.24, the “fibrinogen change from baseline, median” value (COPD patients; D29, 300 mg bid) was −0.17 and the “fibrinogen change from baseline, minimum” value (COPD patients; D29, 300 mg bid) was −1.8. The “mean change from baseline over time for fibrinogen (FIG. 1)” value (COPD patients; Day 14 and 29 during treatment period) was “decrease of fibrinogen levels”, the “estimated difference (Compound A to placebo) in mean change from baseline fibrinogen” value (COPD patients; Day 29, 300 mg bid for 28 days, 90% CI −0.65, −0.14, p-value=0.006) was -0.40 g/L and the “Fibrinogen mean improvement over placebo” value (COPD patients; Day 29, p-value=0.006) was 40 mg/dL. It also gave a fibrinogen level, mean (COPD patients; EOS (Day 56, 28 days after last dose), 300 mg bid) of 3.24 g/L, a fibrinogen level, maximum (COPD patients; EOS, 300 mg bid) of 6.6 g/L and a fibrinogen level, median (COPD patients; EOS, 300 mg bid) of 3.16 g/L. For the same molecule, the fibrinogen level, minimum (COPD patients; EOS, 300 mg bid) was 2 g/L, the “fibrinogen change from baseline, maximum” value (COPD patients; EOS, 300 mg bid) was 3.0 and the “fibrinogen change from baseline, mean” value (COPD patients; EOS, 300 mg bid) was −0.03. For the same molecule, the “fibrinogen change from baseline, median” value (COPD patients; EOS, 300 mg bid) was −0.11, the “fibrinogen change from baseline, minimum” value (COPD patients; EOS, 300 mg bid) was −1.7 and the fibrinogen level, maximum (COPD patients; [3]) was 4.9 g/L. The fibrinogen level, mean (COPD patients; [3]) was 3.03 g/L, the fibrinogen level, median (COPD patients; [3]) was 3 g/L and the fibrinogen level, minimum (COPD patients; [3]) was 1.1 g/L. For the same molecule, the “patients colonized, n (%)” value (Haemophilus influenzae; Baseline) was 25 (55.6) n (%), the “patients colonized, n (%)” value (Haemophilus influenzae; D14) was 20 (46.5) n (%) and the “patients colonized, n (%)” value (Haemophilus influenzae; D29) was 22 (52.4) n (%). The “patients colonized, n (%)” value (Haemophilus influenzae; EOS) was 16 (38.1) n (%), the “patients colonized, n (%)” value [1] was 1 (2.2) n (%) and the “estimated difference (Compound A - placebo) in mean change from baseline sweat chloride” value (CFTR) was -5.19 mmol/L. The “effect on CYP3A4/5” value (CYP3A4/5) was “time dependent inhibitor and inducer”, the “inhibition of BCRP” value (BCRP) was “Weak in vitro inhibition” and the “inhibition of OAT1/3” value (OAT1/3) was “Weak in vitro inhibition”. The “inhibition of UGT1A1” value (UGT1A1) was “Weak in vitro inhibition”, the “inhibition of UGT2B7” value (UGT2B7) was “Weak in vitro inhibition” and the AUC(0-t) (in vivo; NOAEL exposure, AUC0-24 h (exposure threshold), chronic monkey toxicology study) was 91.7 µg·h/mL. For the same molecule, the AUC(0-t) (in vivo; upper range of the individual animal (monkey) exposures, AUC0-24 h) was 159 µg·h/mL.
